Test results reported in patent US10588280B2, “Aided delivery of plant treatment agents” (Monsanto Technology LLC, priority 2014, dated 2020).

Key:
[1] = tested on: haploid maize seedlings (shoot meristem); test: Example 1: single unsubmerged centrifugation after colchicine soak, chromosome doubling success; format: in vivo; settings: 1250 ppm colchicine 10 min soak, unsubmerged spin 335 g 3 min
Source text: Corn seeds of four different maize F1 hybrid-derived haploid induction populations were used in this experiment; two of the populations, Male 1 and Male 2, were derived from two different male inbred lines and the remaining two populations, Female 1 and Female 2, were derived from two different female inbred lines. Seeds of each germplasm were germinated in soil and the subsequent seedlings tended in a greenhouse under standard maize growing conditions until the seedlings reached the V1 to V2 growth stages.
Next, several randomly-selected seedlings of each germplasm were then removed from the soil, washed to remove residual soil and then subjected to a contacting step which included soaking the seedlings for 10 minutes in a liquid doubling agent comprising 1250 ppm colchicine.
After the contacting step, seedlings were bundled in a PCS with wooden rods, similar to that described in FIG. 9. The seedlings and rods were wrapped tightly together with several layers of aluminum foil. Care was taken to wrap the seedlings tightly, but not so tight as to damage the tissues of the seedling. The folds and layers of the wrap were arranged such that any liquid agent still clinging to the surface of the plant would not be trapped inside the wrap during centrifugation.
Once arranged in the centrifuge, seedlings were subjected to an unsubmerged centrifugation at 335 g for 3 min.
After centrifugation, the seedlings were removed from the centrifuge container, rinsed with water to remove any remaining plant treatment agent, and then transplanted into 10-inch pots in a growth room where they were tended under standard maize growing conditions until they grew to maturity and flowered.
Self-pollinations were attempted with each plant that survived the treatment to produce pollen and during the ensuing growth the pollination success, fertilization success and final doubling efficiency were determined within each sample.
Control samples of several randomly-selected seedlings from each germplasm received no exposure to the plant treatment agent, but were otherwise handled identically as their treated counterparts.

[2] = tested on: haploid seedlings derived from 91DUQ1 or 83IDI1; test: Example 7: serial centrifugation with colchicine at three growth stages (FIG. 4); format: in vivo, maize; settings: 1250 ppm colchicine, submerged 50 g 3 min then unsubmerged 335 g 3 min, ear with at least four kernels
Source text: Three different growth stages and the effects on DH-related success indicators between the three life stages were compared.
F1 hybrid-derived haploid seedlings derived from either female inbred line 91DUQ1 or male inbred line 83IDI1 were germinated in soil in a greenhouse in standard maize growing conditions. To ensure that the older seedlings would fit into the centrifuge sample container, and to ensure that all seedlings received the same chemical treatments, all seedlings were subjected to a 1% paclobutrazol (PBZ) soil drench treatment at 6 days after planting, 10 ml per plant.
This population of seedlings was subdivided into 3 samples, each comprising several dozen seedlings. Half of the seedlings in each sample were derived from 91DUQ1 and the other half derived from 83IDI1. A first sample was removed from the soil at the V1-V2 growth stage (1 week after planting), a second sample removed from the soil at the V3-V4 stage (2 weeks after planting) and a third sample removed from the soil at the V4-V5 growth stage (3 weeks after planting).
Following removal from the soil, seedlings in each sample were rinsed in water to remove residual soil, then wrapped in a PCS along with several wooden rods, similar that that shown in FIG. 9, and subjected to a first submerged centrifugation in 1250 ppm colchicine at 50 g for 3 min.
Following the first, submerged centrifugation, the plant treatment solution was decanted. The seedlings, with some residual agent clinging to their surfaces, were returned to the empty centrifuge container and subjected to a unsubmerged centrifugation at 335 g for 3 min. […]
Self-pollinations were attempted with each plant that survived the treatment to produce pollen and silks and during the ensuing growth the pollination success, fertilization success and final doubling efficiency were determined within each sample. In this experiment, the doubling efficiency within each growth stage sample was calculated by dividing the number of plants that produced at least one ear comprising at least four kernels by the total number of plants treated.

[3] = tested on: haploid corn seedlings (SAM); test: Example 2: single submerged centrifugation in colchicine, survival and doubling success; format: in vivo; settings: for DE / Fert. Success / Initial Survival / Poll. Success: single submerged spin 50 g 10 min
Source text: Seeds of 5 different F1 hybrid-derived haploid commercial corn lines were randomly-selected and germinated in a greenhouse. The resulting seedlings were removed from soil or growth media at the V1-V2 growth stage and the soil or growth media rinsed from the plants with water. One sample of several random seedlings within each haploid line was placed in a centrifuge sample container without regard to how the shoot-root axis of the plants would be orientated with respect to the force of acceleration generated during the planned centrifugation. Next, a plant treatment solution comprising 1000 ppm colchicine was poured into the container such that the solution submerged each plants SAM, and then the sample centrifuged at 50 g for 10 min with the SAMs submerged in the plant treatment agent.
Following centrifugation, the plants were removed, rinsed with water to remove any remaining colchicine solution, and then recovered and tended in a light, humidity, and temperature-controlled greenhouse for several days before being transplanted to a nursery greenhouse.
The control sample received no centrifugation or colchicine exposure, but was otherwise handled identically as the treatment sample. During the subsequent growth of the plants, the initial survival, pollination success, fertilization success, and doubling efficiency (DE) were determined within each sample.

haploid corn seedlings = test: Example 5: field transplanting survival after single or serial spin with colchicine; format: in vivo; settings: for 3-wk Survival (field transplanting): 50 g
Method: Haploid corn seedlings derived from a cross between commercial inbred 01DKD2 and the inducer KHI1 or commercial inbred 83IDI1 and KHI1 were treated by either single spin or serial spin centrifugation methods and recovered in a light, moisture, and temperature controlled environment for approximately 15 hours. Plants were then transplanted into a field and tended for three weeks, after which plant survival rates were assessed (Table 5).

[4] = Ave: of five lines, 1000 ppm colchicine
[5] = centrifuged samples, 1000 ppm colchicine, submerged 50 g 10 min, vs untreated controls
[6] = line F1004, 1000 ppm colchicine
[7] = line F1045, 1000 ppm colchicine
[8] = line F1095, 1000 ppm colchicine
[9] = line F1118, 1000 ppm colchicine
[10] = line F1900, 1000 ppm colchicine

COc1cc2c(c(OC)c1OC)-c1ccc(OC)c(=O)cc1[C@@H](NC(C)=O)CC2 [colchicine]
DE (doubling efficiency) ([1]; Female1): 42%
Fertilization Successes ([1]; Female1, 19 plants treated): 8
Pollination Successes ([1]; Female1, 19 plants treated): 10
DE (doubling efficiency) ([1]; Female2): 50%
Fertilization Successes ([1]; Female2, 8 plants treated): 4
Pollination Successes ([1]; Female2, 8 plants treated): 6
DE (doubling efficiency) ([1]; Male1): 71%
Fertilization Successes ([1]; Male1, 14 plants treated): 10
Pollination Successes ([1]; Male1, 14 plants treated): 13
DE (doubling efficiency) ([1]; Male2): 67%
Fertilization Successes ([1]; Male2, 15 plants treated): 10
Pollination Successes ([1]; Male2, 15 plants treated): 12
DE ([2]; V1-V2 growth stage): over 70%
doubling efficiency, average ([2]; V4-V5 growth stage): ~30%
doubling efficiency, median ([2]; V4-V5 growth stage): 36.7%
DE [3, 4]: 30%
Fert. Success [3, 4]: 84%
Initial Survival [3, 4]: 77%
Poll. Success [3, 4]: 47%
drop in initial survival as compared to controls [3, 5]: 15%
improvement of overall average DE as compared to controls [3, 5]: 25%
DE [3, 6]: 50%
Fert. Success [3, 6]: 100%
Initial Survival [3, 6]: 100%
Poll. Success [3, 6]: 50%
DE [3, 7]: 25%
Fert. Success [3, 7]: 100%
Initial Survival [3, 7]: 58%
Poll. Success [3, 7]: 43%
DE [3, 8]: 47%
Fert. Success [3, 8]: 78%
Initial Survival [3, 8]: 87%
Poll. Success [3, 8]: 69%
DE [3, 9]: 10%
Fert. Success [3, 9]: 100%
Initial Survival [3, 9]: 40%
Poll. Success [3, 9]: 25%
DE [3, 10]: 10%
Fert. Success [3, 10]: 40%
Initial Survival [3, 10]: 100%
Poll. Success [3, 10]: 50%
individuals that produced pollen and silks ([3]; minimum over all five inbred samples receiving the experimental treatment): at least 25%
3 week post transplanting survival rate (haploid corn seedlings; either haploid line, regardless of colchicine concentration or second spin): higher than 80%
3-wk Survival (field transplanting) (haploid corn seedlings; haploid parent 01DKD2, 1000 ppm colchicine, submerged 10 min, no second spin): 94%
3-wk Survival (field transplanting) (haploid corn seedlings; haploid parent 01DKD2, 1250 ppm colchicine, submerged 3 min, unsubmerged 3 min, 335 g): 89%
3-wk Survival (field transplanting) (haploid corn seedlings; haploid parent 83IDI1, 1000 ppm colchicine, submerged 10 min, no second spin): 81%
3-wk Survival (field transplanting) (haploid corn seedlings; haploid parent 83IDI1, 1250 ppm colchicine, submerged 3 min, unsubmerged 3 min, 335 g): 83%
